In patent US7202254B2, “Antibacterial compounds: process for their preparation and pharmaceutical compositions containing them” (Dr. Reddy's Laboratories Limited, priority 2002, dated 2007):

COC(=S)NCc1cn(-c2ccc(N3CCC(=NO)CC3)c(F)c2)nn1 [Example 83, {1-[3-Fluoro-4-(4-hydroxyimino-piperidin-1-yl)-phenyl]-1H-[1,2,3]triazol-4-ylmethyl}-thiocarbamic acid O-methyl ester]
melting point: 141 to 142 °C

COC(=S)NCc1cn(-c2ccc(N3CCC(=C(C#N)C#N)CC3)c(F)c2)nn1 [Example 84, {1-[4-(4-Dicyanomethylene-piperidin-1-yl)-3-fluoro-phenyl]-1H-[1,2,3]triazol-4-ylmethyl}-thiocarbamic acid O-methyl ester]
melting point: 198 °C

COC(=S)NCc1cn(-c2cc(F)c(N3CC[S+]([O-])CC3)c(F)c2)nn1 [Example 57, 1-[3,5-Difluoro-4-(1-oxo-1lambda*4*-thiomorpholin-4-yl)-phenyl]-1H-{[1,2,3]triazol-4-ylmethyl}-thiocarbamic acid O-methyl ester]
melting point: 202 °C

CC(=O)NCc1cn(-c2cc(F)c(N3CC[S+]([O-])CC3)c(F)c2)nn1 [Example 44, N-{1-[3,5-Difluoro-4-(1-oxo-1lambda*4*-thiomorpholin-4-yl)-phenyl]-1H-triazol-4-ylmethyl}-acetamide]
melting point: 203 °C

COC(=S)NCc1cn(-c2ccc(N3CCS(=N)CC3)c(F)c2)nn1 [Example 63, {1-[3-Fluoro-4-(1-imino-1lambda*4*-thiomorpholin-4-yl)-phenyl]-1H-[1,2,3]triazol-4-ylmethyl}-thiocarbamic acid O-methyl ester]
melting point: 198 °C

CC(=O)NCc1cn(-c2ccc(N3CCOCC3)c(F)c2)nn1 [Example 42, N-[1-(3-Fluoro-4-morpholin-4-yl-phenyl)-1H-[1,2,3]triazol-4-ylmethyl]-acetamide]
melting point: 218 °C

O=C(NCc1cn(-c2ccc(N3CCOCC3)c(F)c2)nn1)C(Cl)Cl [Example 79, 2,2-Dichloro-N-[1-(3-fluoro-4-morpholin-4-yl-phenyl)-1H-[1,2,3]triazol-4-ylmethyl]-acetamide]
melting point: 190 °C

NC(=S)NCc1cn(-c2ccc(N3CC[S+]([O-])CC3)c(F)c2)nn1 [Example 77, {1-[3-Fluoro-4-(1-oxo-1lambda*4*-thiomorpholin-4-yl)-phenyl]-1H-[1,2,3]triazol-4-ylmethyl}-thiourea]
melting point: 228 to 230 °C

CC(=O)NCc1cn(-c2cc(F)c(N3CCSCC3)c(F)c2)nn1 [Example 43, N-[1-(3,5-Difluoro-4-thiomorpholin-4-yl-phenyl)-1H-[1,2,3]triazol-4-ylmethyl]-acetamide]
melting point: 210 °C

CC(=O)NCc1cn(-c2ccc(N3CCSCC3)c(F)c2)nn1 [Example 46, N-[1-(3-Fluoro-4-thiomorpholin-4-yl-phenyl)-1H-[1,2,3]triazol-4-ylmethyl]-acetamide]
melting point: 207 °C

O=CNCc1cn(-c2ccc(N3CC[S+]([O-])CC3)c(F)c2)nn1 [Example 50, N-{1-[3-Fluoro-4-(1-oxo-1lambda*4*-thiomorpholin-4-yl)-phenyl]-1H-[1,2,3]triazol-4-ylmethyl}-formamide]
melting point: 182 to 184 °C

COC(=O)NCc1cn(-c2ccc(N3CC[S+]([O-])CC3)c(F)c2)nn1 [Example 48, {1-[3-Fluoro-4-(1-oxo-1lambda*4*-thiomorpholin-4-yl)-phenyl]-1H-[1,2,3]triazol-4-ylmethyl}-carbamic acid methyl ester]
melting point: 218 °C

COC(=S)NCc1cn(-c2ccc(N3CCC(=O)CC3)c(F)c2)nn1 [Example 82, {1-[3-Fluoro-4-(4-oxo-piperidin-1-yl)-phenyl]-1H-[1,2,3]triazol-4-ylmethyl}-thiocarbamic acid O-methyl ester]
melting point: 145 to 147 °C

[N-]=[N+]=NCc1cn(-c2ccc(N3CCOCC3)c(F)c2)nn1 [Example 12, 4-[4-(4-Azidomethyl-[1,2,3]triazol-1-yl)-2-fluorophenyl]-morpholine]
melting point: 90 °C

O=C(NCc1cn(-c2ccc(N3CCSCC3)c(F)c2)nn1)c1ccccn1 [Example 75, N-{1-[3-Fluoro-4-(4-thiomorpholinyl)phenyl]-1H-1,2,3-triazol-4-ylmethyl}-pyridine-2-carboxamide]
melting point: 190 to 192 °C

O=C(NCc1cn(-c2ccc(N3CCOCC3)c(F)c2)nn1)c1cnccn1 [Example 71, Pyrazine-2-carboxylic acid [1-(3-fluoro-4-morpholin-4-yl-phenyl)-1H-[1,2,3]triazol-4-ylmethyl]-amide]
melting point: 215 °C

CSC(=S)NCc1cn(-c2ccc(N3CC[S+]([O-])CC3)c(F)c2)nn1 [Example 68, {1-[3-Fluoro-4-(1-oxo-1lambda*4*-thiomorpholin-4-yl)-phenyl]-1H-[1,2,3]triazol-4-ylmethyl}-dithiocarbamic acid methyl ester]
melting point: 184 °C

COC(=S)NCc1cn(-c2cc(F)c(N3CCC(=O)CC3)c(F)c2)nn1 [Example 85, {1-[3,5-Difluoro-4-(4-oxo-piperidin-1-yl)-phenyl]-1H-[1,2,3]triazol-4-ylmethyl}thiocarbamic acid O-methyl ester]
melting point: 175 to 176 °C

CS(=O)(=O)NCc1cn(-c2ccc(N3CC[S+]([O-])CC3)c(F)c2)nn1 [Example 80, N-{1-[3-Fluoro-4-(1-oxo-1lambda*4*-thiomorpholin-4-yl)-phenyl]-1H-[1,2,3]triazol-4-ylmethyl}-methanesulfonamide]
melting point: 174 to 176 °C

COC(=S)NCc1cn(-c2ccc(N3CCC4(CC3)OCCO4)c(F)c2)nn1 [Example 62, {1-[4-(1,4-Dioxa-8-aza-spiro[4.5]dec-8-yl)-3-fluoro-phenyl]-1H-[1,2,3]triazol-4-ylmethyl}-thiocarbamic acid O-methyl ester]
melting point: 135 to 137 °C

CSC(=S)OCc1cn(-c2ccc(N3CCOCC3)c(F)c2)nn1 [Example 73, Dithiocarbonic acid O-[1-(3-fluoro-4-morpholin-4-yl-phenyl)-1H-[1,2,3]triazol-4-ylmethyl]ester S-methyl ester]
melting point: 118 °C

CC(=O)NCc1cn(-c2cc(F)c(N3CCS(=O)(=O)CC3)c(F)c2)nn1 [Example 45, N-{1-[4-(1,1-Dioxo-1lambda*6*-thiomorpholin-4-yl)-3,5-difluoro-phenyl]-1H-[1,2,3]triazol-4-ylmethyl}-acetamide]
melting point: 197 °C

NCc1cn(-c2cc(F)c(N3CC[S+]([O-])CC3)c(F)c2)nn1 [Example 28, C-{1-[3,5-Difluoro-4-(1-oxo-1lambda*4*-thiomorpholin-4-yl)-phenyl]-1H-[1,2,3]triazol-4-yl}-methylamine]
melting point: 190 °C

OCc1cn(-c2ccc(N3CCOCC3)c(F)c2)nn1 [Example 2, [1-(3-Fluoro-4-morpholin-4-yl-phenyl)-1H-[1,2,3]triazol-4-yl]-methanol]
melting point: 198 °C

Fc1cc(-n2cc(CNC(=S)c3ccccn3)nn2)ccc1N1CCSCC1 [Example 81, N-{1-[3-fluoro-4-(−4-thiomorpholinyl)phenyl]-1H-1,2,3-triazol-4-ylmethyl}-pyridine-2-thiocarboxamide]
melting point: 158 to 160 °C

NNC(=S)NCc1cn(-c2ccc(N3CCSCC3)c(F)c2)nn1 [Example 66, 1-[3-fluoro-4-(4-thiomorpholinyl)phenyl]-1H-1,2,3-triazol-4-ylmethylamino-hydrazinomethanethione]
melting point: 174 to 176 °C

NC(=S)NCc1cn(-c2ccc(N3CCOCC3)c(F)c2)nn1 [Example 76, [1-(3-Fluoro-4-morpholin-4-yl-phenyl)-1H-[1,2,3]triazol-4-ylmethyl]-thiourea]
melting point: 192 °C

CC(=O)NCc1cn(-c2ccc(N3CCS(=O)(=O)CC3)c(F)c2)nn1 [Example 49, N-{1-[4-(1,1-Dioxo-1lambda*6*-thiomorpholin-4-yl)-3-fluoro-phenyl]H-triazol-4-ylmethyl}-acetamide]
melting point: 198 °C

CCNC(=S)NCc1cn(-c2ccc(N3CC[S+]([O-])CC3)c(F)c2)nn1 [Example 65, 1-Ethyl-3-{1-[3-fluoro-4-(1-oxo-1lambda*4*-thiomorpholin-4-yl)-phenyl]-1H-[2,3]triazol-4-ylmethyl}-thiourea]
melting point: 204 °C

CC(=S)NCc1cn(-c2ccc(N3CC[S+]([O-])CC3)c(F)c2)nn1 [Example 53, N-{1-[3-Fluoro-4-(1-oxo-1lambda*4*-thiomorpholin-4-yl)-phenyl]-1H-[1,2,3]triazol-4-ylmethyl}-thioacetamide]
melting point: 245 °C

O=C(NC(=S)NCc1cn(-c2ccc(N3CCOCC3)c(F)c2)nn1)c1ccccc1 [Example 70, 1-Benzoyl-3-[1-(3-fluoro-4-morpholin-4-yl-phenyl)-1H-[1,2,3]triazol-4-ylmethyl]-thiourea]
melting point: 138 °C

O=C(NCc1cn(-c2ccc(N3CCSCC3)c(F)c2)nn1)c1cnccn1 [Example 72, N-{1-[3-fluoro-4-(4-thiomorpholinyl)phenyl]-1H-1,2,3-triazol-4-ylmethyl}-pyrazine-2-carboxamide]
melting point: 216 to 218 °C

CNC(=S)NCc1cn(-c2ccc(N3CC[S+]([O-])CC3)c(F)c2)nn1 [Example 78, 1-{1–[3-Fluoro-4-(1-oxo-1lambda*4*-thiomorpholin-4-yl)-phenyl]-1H-[1,2,3]triazol-4-ylmethyl}-3-methyl-thiourea]
melting point: 182 to 184 °C

CC(=O)NCc1cn(-c2cc(F)c(N3CCOCC3)c(F)c2)nn1 [Example 41, N-[1-(3,5-Difluoro-4-morpholin-4-yl-phenyl)-1H-[1,2,3]triazol-4-ylmethyl]-acetamide]
melting point: 218 °C

CNC(=S)NCc1cn(-c2cc(F)c(N3CCOCC3)c(F)c2)nn1 [Example 64, 1-[1-(3,5-Difluoro-4-morpholin-4-yl-phenyl)-1H-[1,2,3]triazol-4-ylmethyl]-3-methyl-thiourea]
melting point: 181 °C

CC(=O)NCc1cn(-c2ccc(N3CC[S+]([O-])CC3)c(F)c2)nn1 [Example 47, N-{1-[3-Fluoro-4-(1-oxo-1lambda*4*-thiomorpholin-4-yl)-phenyl]-H-[1,2,3]triazol-4-ylmethyl}-acetamide]
melting point: 210 °C
